The record followed here is patent US20070265289A1, “2-Aminopyrimidine Derivative” (priority 2004, published 2007).

Structures are written as SMILES. Structures can show the parent of a compound that is named as a salt.

One experiment has as its system TNF-α production. The experiment is described as follows: Mouse LPS-induced TNF-α production model. The class given is in vivo, Balb/c female mice. The following applies: oral administration of 30 mg/kg, 60 minutes before LPS, blood 90 minutes after LPS; for inhibition in vivo at 30 mg/kg: Mus musculus, po, 1.5 h, read-out: inhibition of plasma TNF-α. As to the method: (2) Mouse LPS-Induced TNF-α Production Model:
6 weeks old Balb/c female mice were placed into two groups, a control group and a test compound administration group. A solution containing 10 μg/mouse of LPS in 0.9% physiological salt was administered by intraperitoneal injection into the control mice. 60 minutes before the LPS administration, a compound of the invention was orally administered to the mice of the test compound administration group. Under anesthesia with diethyl ether, blood was collected from the posterior venous cavity of the mice of both the test compound administration group and the control group at 90 minutes after the LPS administration, and treated with heparin, and the plasma was separated from it through centrifugation at 10000 rpm at 4° C. for 10 minutes, and then diluted two-fold with PBS (pH 7.4).
The TNF-α concentration in the sample was determined with an ELISA kit (by Pharmingen, San Diego, Calif.). The inhibition by the mice of the test compound administration group relative to the mean inhibition by those of the control group was calculated as a mean value thereof.
The inhibition in oral administration of 30 mg/kg of compound (I) is shown below.

A further experiment concerns the target T1, rat IKK2 (Rattus norvegicus, UniProt Q9QY78).
T1 construct: ORF of rat IKK2 (GenBank AF115282) was cloned from a rat pancreas cDNA library; FLAG; made in house; host or cells: Sf9 insect cells
T1 sequence (Q9QY78 1-757): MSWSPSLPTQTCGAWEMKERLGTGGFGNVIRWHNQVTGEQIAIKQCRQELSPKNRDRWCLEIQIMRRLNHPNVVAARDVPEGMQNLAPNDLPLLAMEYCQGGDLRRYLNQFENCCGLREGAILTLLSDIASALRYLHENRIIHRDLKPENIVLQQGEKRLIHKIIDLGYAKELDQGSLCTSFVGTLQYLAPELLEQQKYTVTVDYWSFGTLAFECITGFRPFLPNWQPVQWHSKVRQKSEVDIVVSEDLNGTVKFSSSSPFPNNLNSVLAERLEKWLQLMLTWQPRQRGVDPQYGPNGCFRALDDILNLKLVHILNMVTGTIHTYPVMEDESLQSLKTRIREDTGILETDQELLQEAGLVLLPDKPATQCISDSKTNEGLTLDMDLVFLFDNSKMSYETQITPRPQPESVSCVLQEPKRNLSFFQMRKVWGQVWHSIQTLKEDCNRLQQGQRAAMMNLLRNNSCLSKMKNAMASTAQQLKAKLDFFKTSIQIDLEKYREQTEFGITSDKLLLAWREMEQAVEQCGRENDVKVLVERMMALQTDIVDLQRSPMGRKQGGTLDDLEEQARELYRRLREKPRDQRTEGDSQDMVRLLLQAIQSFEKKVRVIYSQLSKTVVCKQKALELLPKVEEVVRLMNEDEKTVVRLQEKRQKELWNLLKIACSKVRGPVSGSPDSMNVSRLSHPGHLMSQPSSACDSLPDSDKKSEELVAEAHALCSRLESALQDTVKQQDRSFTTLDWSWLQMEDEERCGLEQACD
The experiment is described as follows: Evaluation of rat IKK2 enzyme inhibition. The format is biochemical. To be noted: 0.5 μM ATP, probit analysis; read-out: IC50, rat IKK2 enzyme activity-inhibitory effect. As for the experimental part:
(1) Evaluation of Rat IKK2 Enzyme Inhibition:
ORF of rat IKK2 (GenBank AF115282) was cloned from a rat pancreas cDNA library, and with a FLAG-tag attached thereto, it was expressed in an Sf9 cell line. The cells were dissolved in a cytolytic solution (50 mM Tris-HCl pH 7.5, 0.15M NaCl, 1% NP-40, 10% glycerol, 1 mM EDTA, 1 mM EGTA pH 7.5, 1 mM Na3VO4, 5 mM p-nitrophenylphosphate, 10 mM O-glycerophosphate, 1 mM DTT, 1 mM PMSF, 10 μg/ml leupeptin, 10 μg/ml aprotinin (by Sigma)) to prepare a large amount of an cell extract, which was then purified on an anti-FLAG M2 antibody (by Sigma). This experimental operation was carried out in accordance with gene manipulation experiment manuals such as known methods (Sambrook, J. et al, Molecular Cloning-A Laboratory Manual, Cold Spring Harbor laboratory, NY, 1989) or the instructions attached to the reagents. The purified rat IKK2 was stored in an enzyme preservative (20 mM Tris-HCl pH 7.5, 10% glycerol, 12.5 mM β-glycerophosphate, 0.5 mM EDTA, 0.5 mM EGTA, 0.05% Brij35, 1 mM DTT, 1 mM PMSF (by Sigma)) at −80° C.
The purified rat IKK2, 1× enzymatic reaction buffer (20 mM Tris-HCl pH 7.5, 12.5 mM O-glycerophosphate, 20 mM MgCl2, 0.1 mM DTT), 0.01% BSA (by Sigma), 0.5 μM ATP, 0.2 μM biotinated substrate peptide (18th to 49th amino acid residues of rat I-kappa B alpha (GenBank Q63746)) and a test compound dissolved in DMSO were added to a 384-well plate (catalogue No. 3677, by Corning) to be 10 μl in total therein, and left at room temperature for 90 minutes. Next, […] of a reaction stopper (100 mM Hepse pH 8, 0.01% BSA, 0.8 M KF, 50 mM EDTA pH 8, 1% Triton X-100, europium cryptate-labeled anti-phosphorylation I-kappa B alpha-antibody (by Santa Cru), streptoavidin-labeled XL665 (by Nihon Schering)) was added thereto, kept warmed for 30 minutes, and then assayed with DISCOVERY (by Perkin-Elmer). The rat IKK2 enzyme activity-inhibitory effect of the tested compound was obtained according to the following formula. Every dose was tested independently three times. Inhibition (%) by Test Compound=((mean value with rat IKK2 but not with test compound)−(mean value with both test compound and rat IKK2))/((mean value with rat IKK2 but not with test compound)−(mean value not with rat IKK2))×100.

Consider `CCc1ccc(O)c(-c2cc(C3CCCNC3)nc(N)n2)c1` (single isomer, unassigned; (+)) [Example 79, (+)-2-(2-amino-6-piperidin-3-ylpyrimidin-4-yl)-4-ethylphenol dihydrochloride], for which, in the experiment on TNF-α production, the inhibition in vivo at 30 mg/kg was 64%.

On to `CCc1ccc(O)c(-c2cc(C3CCCNC3)nc(N)n2)c1` (single isomer, unassigned; (-)) [Example 78, (−)-2-(2-amino-6-piperidin-3-ylpyrimidin-4-yl)-4-ethylphenol dihydrochloride], for which the IC50 (as a rule, the point on the concentration scale where inhibition reaches its midpoint) at rat IKK2 was at most 500 nM.

As for `Nc1nc(-c2ccccc2O)cc(C2CCCNC2)n1` (stereo not drawn) [Example 1, 2-(2-amino-6-piperidin-3-ylpyrimidin-4-yl)phenol dihydrochloride], the IC50 on rat IKK2 is at most 500 nM.

For the molecule `CCOc1cccc(O)c1-c1cc(C2CCCNC2)nc(N)n1` (stereo not drawn) [Example 5, 2-(2-amino-6-piperidin-3-ylpyrimidin-4-yl)-3-ethoxyphenol dihydrochloride], the IC50 at rat IKK2 was at most 500 nM.

With `Nc1nc(-c2c(O)cccc2O)cc(C2CCCNC2)n1` (stereo not drawn) [Example 10, 2-(2-amino-6-piperidin-3-ylpyrimidin-4-yl)benzene-1,3-diol dihydrochloride], the IC50 on rat IKK2 is at most 500 nM.

For `Nc1nc(-c2cc(F)ccc2O)cc(C2CCCNC2)n1` (stereo not drawn) [Example 12], at rat IKK2, the IC50 is at most 500 nM.

With `Nc1nc(-c2ccc(F)cc2O)cc(C2CCCNC2)n1` (stereo not drawn) [Example 13], the IC50 at rat IKK2 is at most 500 nM.

In the case of `Nc1nc(-c2cc(Cl)ccc2O)cc(C2CCCNC2)n1` (stereo not drawn) [Example 14], the IC50 at rat IKK2 is at most 500 nM.

On to `Cc1cc(O)c(-c2cc(C3CCCNC3)nc(N)n2)cc1Cl` (stereo not drawn) [Example 19], for which the IC50 on rat IKK2 is at most 500 nM.

As to `Cc1ccc(O)c(-c2cc(C3CCCNC3)nc(N)n2)c1` (stereo not drawn) [Example 22], in the experiment on TNF-α production, the inhibition in vivo at 30 mg/kg worked out at 73%. Besides, the IC50 on rat IKK2 is at most 500 nM.

Consider `COc1ccc(O)c(-c2cc(C3CCCNC3)nc(N)n2)c1` (stereo not drawn) [Example 26], for which, on rat IKK2, the IC50 is at most 500 nM.

As for `CSc1ccc(O)c(-c2cc(C3CCCNC3)nc(N)n2)c1` (stereo not drawn) [Example 28], the IC50 on rat IKK2 was at most 500 nM.

For `Cc1cc(O)c(-c2cc(C3CCCNC3)nc(N)n2)c(OCC2CC2)c1` (stereo not drawn) [Example 40], the IC50 on rat IKK2 is at most 500 nM.

With `COc1cccc(O)c1-c1cc(C2CCCNC2)nc(N)n1` (stereo not drawn) [Example 44], the IC50 on rat IKK2 was at most 500 nM.

In the case of `COCCOc1cccc(O)c1-c1cc(C2CCCNC2)nc(N)n1` (stereo not drawn) [Example 46], the IC50 on rat IKK2 is at most 500 nM.

`Nc1nc(-c2c(O)cccc2OCc2ccccc2)cc(C2CCCNC2)n1` (stereo not drawn) [Example 47]: the IC50 on rat IKK2 was at most 500 nM.

With `Nc1nc(-c2c(O)cccc2OCCC2CCNCC2)cc(C2CCCNC2)n1` (stereo not drawn) [Example 48], the IC50 at rat IKK2 is at most 500 nM.

As to `CC1CC1COc1cccc(O)c1-c1cc(C2CCCNC2)nc(N)n1` (stereo not drawn) [Example 65, 2-(2-amino-6-piperidin-3-ylpyrimidin-4-yl)-3-[(2-methylcyclopropyl)methoxy]phenol dihydrochloride], the inhibition in vivo at 30 mg/kg in the experiment with TNF-α production stood at 75%. Further, the IC50 at rat IKK2 is at most 500 nM.

Take `Nc1nc(-c2c(O)cccc2OCC(F)(F)C(F)F)cc(C2CCCNC2)n1` (stereo not drawn) [Example 89]: the inhibition in vivo at 30 mg/kg in the experiment with TNF-α production came to 87%. Further, the IC50 on rat IKK2 is at most 500 nM.

As for `CC1(COc2cccc(O)c2-c2cc(C3CCCNC3)nc(N)n2)CC1` (stereo not drawn) [Example 99], the IC50 at rat IKK2 was at most 500 nM.

`CC(C)OCCOc1cccc(O)c1-c1cc(C2CCCNC2)nc(N)n1` (stereo not drawn) [Example 100]: at rat IKK2, the IC50 was at most 500 nM.

For `CC(C)COCCOc1cccc(O)c1-c1cc(C2CCCNC2)nc(N)n1` (stereo not drawn) [Example 101], the IC50 at rat IKK2 is at most 500 nM.

Turning to `CC(COc1cccc(O)c1-c1cc(C2CCCNC2)nc(N)n1)Oc1ccccc1` (stereo not drawn) [Example 103], in the experiment with TNF-α production, the inhibition in vivo at 30 mg/kg turned out to be 70%. Further, on rat IKK2, the IC50 is at most 500 nM.

For `Nc1nc(-c2c(O)cccc2OCCC2CC2)cc(C2CCCNC2)n1` (stereo not drawn) [Example 104], the inhibition in vivo at 30 mg/kg in the experiment on TNF-α production stood at 86%. The concentration for half-maximal inhibition (IC50) on rat IKK2 is at most 500 nM.

For `Nc1nc(-c2c(O)cccc2OCCCC(F)(F)F)cc(C2CCCNC2)n1` (stereo not drawn) [Example 106], the inhibition in vivo at 30 mg/kg in the experiment with TNF-α production turned out to be 82%. Further, on rat IKK2, the IC50 was at most 500 nM.

With `Nc1nc(-c2c(O)cccc2OCc2ccc(Br)cc2)cc(C2CCCNC2)n1` (stereo not drawn) [Example 108], the IC50 on rat IKK2 was at most 500 nM.

Consider `CC1CCC(Oc2cccc(O)c2-c2cc(C3CCCNC3)nc(N)n2)C1` (stereo not drawn) [Example 126], for which, on rat IKK2, the IC50 was at most 500 nM.

Take `Cc1ccc(O)c(-c2cc(C3CNCC(C)C3)nc(N)n2)c1` (stereo not drawn) [Example 136]: on rat IKK2, the IC50 is at most 500 nM.

With `Cc1ccc(O)c(-c2cc(C3CCC(C)NC3)nc(N)n2)c1` (stereo not drawn) [Example 137], the IC50 at rat IKK2 was at most 500 nM.

Regarding `CC1CCC(c2cc(-c3c(O)cccc3OCC3CC3)nc(N)n2)CN1` (stereo not drawn) [Example 140], the inhibition in vivo at 30 mg/kg with TNF-α production came to 86%. Also, the IC50 on rat IKK2 was found to be 2.9 nM.

For `Nc1nc(-c2c(O)cccc2OCC2CC2)cc(C2CCCNC2)n1` (stereo not drawn) [Example 141], the inhibition in vivo at 30 mg/kg with TNF-α production was 86%.

For the molecule `Nc1nc(-c2c(O)cccc2OCC2CC2)cc(C2CCCNC2)n1` (stereo not drawn) [Example 142], in the experiment on TNF-α production (30 mg/kg), the “inhibition of plasma TNF-α” value was found to be 90%.

Regarding `Nc1nc(-c2c(O)cccc2OCC2CC2)cc(C2CCNCC2)n1` [Example 145], on rat IKK2, the IC50 was at most 500 nM.

As to `CC(C)COc1cccc(O)c1-c1cc(C2CCNCC2)nc(N)n1` [Example 146], the IC50 at rat IKK2 is at most 500 nM.

Take `Nc1nc(-c2c(O)cccc2OCC(=O)c2ccccc2)cc(C2CCNCC2)n1` [Example 147]: the IC50 on rat IKK2 is at most 500 nM.
